For one assay, the system named is cats. The assay can be described thus: Determination of the hypotensive and positive inotropic activity in the cat. It is filed as in vivo. To be noted: for change in vivo at 0.1 mg/kg / change in vivo at 0.5 mg/kg / change in vivo at 2 mg/kg: Felis catus, iv, read-out: Change of dp/dt in %. The procedure: TEST 2. DETERMINATION OF THE HYPOTENSIVE AND POSITIVE INOTROPIC ACTIVITY IN THE CAT
The tests were performed in cats which were anesthetized with pentobarbital sodium (40 mg/kg i.p.). The animals breathed spontaneously. The arterial blood pressure was measured in the aorta abdominalis by a Statham pressure transducer (P 23 Dc). The positive inotropic effect was determined by measuring the pressure in the left […] by means of a catheter tipmanometer (Millar PC 350 A). This contractility parameter dp/dtmax was registered by means of an analog differentiating circuit. The substances under test were injected into a vena femoralis. Physiological sodium […] solution or polydiol 200 was used as solvent.

For a further assay, the system named is thrombocyte aggregation. Description: Determination of the thrombocyte aggregation according to Born and Cross (collagen-provoked, platelet-rich plasma). As to conditions: collagen-induced aggregation. It counts as cell-based, healthy test persons. The procedure:
TEST 1. DETERMINATION OF THE THROMBOCYTE AGGREGATION ACCORDING TO BORN AND CROSS [J. PHYSIOL. 170, 397 (1964)].
The thrombocyte aggregation was measured in platelet-rich plasma of healthy test persons. The decrease of the optical density was photometrically measured and recorded after addition of commercial collagen (Sigma, St. Louis, Mo., USA) which contained […] of collagen-fibrils per ml. The velocity of aggregation (Vmax) was determined by the angle of inclination of the density curve. The point of the curve, where the most light was transmitted, served for the determination of the optical density (o.d.). To provoke maximum aggregation, approximately 0.01 ml of the collagen solution was added to 1 ml of platelet-rich plasma.

The values that follow come from US4361563A, “Pyridazinone-substituted benzimidazoles and salts” (priority 1978, dated 1982).

Where a name gives a salt, the structure may show the parent alone.

As to `CCCC(C)c1nc2cc(C3=NNC(=O)CC3C)ccc2[nH]1` (stereo not shown) [I, 2-(2-Pentyl)-5(6)-(5-methyl-3-oxo-4,5-dihydro-2H-6-pyridazinyl)-benzimidazole hydrochloride], in the assay on cats (0.1 mg/kg i.v.), the “Change of blood pressure, first value of the pair (before the slash)” value (“Change of blood pressure … (before the slash)” for short) is -10 mgm Hg; the “Change of blood pressure, second value of the pair (after the slash)” value (“Change of blood pressure … (after the slash)” below) is -13 mgm Hg; the “Duration of action” value was above 53 min; the change in vivo at 0.1 mg/kg came to 83%. In the assay on cats (0.5 mg/kg i.v.), the “Change of blood pressure … (before the slash)” value was -28 mgm Hg; the “Change of blood pressure … (after the slash)” value is reported as -33 mgm Hg; the “Duration of action” value is above 52 min; the change in vivo at 0.5 mg/kg was determined as 103%.
Turning to `COc1ccc(-c2nc3cc(C4=NNC(=O)CC4C)ccc3n2C)cc1` (stereo not shown) [K, 1-Methyl-2-(4-methoxy-phenyl)-5-(5-methyl-3-oxo-4,5-dihydro-2H-6-pyridazinyl)-benzimidazole], in the assay on cats (0.5 mg/kg i.v.), the “Change of blood pressure … (before the slash)” value is recorded as -28 mgm Hg; the “Change of blood pressure … (after the slash)” value was -34 mgm Hg; the “Duration of action” value was above 40 min; the change in vivo at 0.5 mg/kg came out at 50%.
`Cc1nc2cc(C3=NNC(=O)CC3C)ccc2n1CCC(C)C` (stereo not shown) [L, 1-(3-Methyl-butyl)-2-methyl-5-(5-methyl-3-oxo-4,5-dihydro-2H-6-pyridazinyl)-benzimidazole]: it took 0.05 µM to reach a half-maximal effect in the assay with thrombocyte aggregation (EC50).
In the case of `Cc1nc2cc(C3=NNC(=O)CC3C)ccc2n1Cc1ccccc1` (stereo not shown) [M, 1-Benzyl-2-methyl-5-(5-methyl-3-oxo-4,5-dihydro-2H-6-pyridazinyl)-benzimidazole], in the assay with cats (0.1 mg/kg i.v.), the “Change of blood pressure … (before the slash)” value is recorded as -37 mgm Hg; the “Change of blood pressure … (after the slash)” value is given as -33 mgm Hg; the “Duration of action” value was above 62 min; the change in vivo at 0.1 mg/kg came to 123%. Besides, in the assay with cats (0.5 mg/kg i.v.), the “Change of blood pressure … (before the slash)” value was -57 mgm Hg; the “Change of blood pressure … (after the slash)” value is reported as -48 mgm Hg; the “Duration of action” value is above 110 min; the change in vivo at 0.5 mg/kg stood at 106%.
Turning to `COc1ccc(-c2nc3cc(C4=NNC(=O)C(C)C4)ccc3[nH]2)c(OC)c1` (stereo not shown) [O, 2-(2,4-Dimethoxy-phenyl)-5(6)-(4-methyl-3-oxo-4,5-dihydro-2H-6-pyridazinyl)-benzimidazole, reference compound], in the assay on cats (0.5 mg/kg i.v.), the “Change of blood pressure … (before the slash)” value is reported as “+15 mgm Hg”; the “Change of blood pressure … (after the slash)” value is 6 mgm Hg; the “Duration of action” value was found to be 2 min; the change in vivo at 0.5 mg/kg was found to be 10%.
Turning to `COc1ccc(-c2nc3cc(C4=NNC(=O)C(C)C4)ccc3[nH]2)cc1` (stereo not shown) [P, 2-(4-Methoxy-phenyl)-5(6)-(4-methyl-3-oxo-4,5-dihydro-2H-6-pyridazinyl)-benzimidazole, reference compound], in the assay on cats (0.5 mg/kg i.v.), the “Change of blood pressure … (before the slash)” value is reported as -10 mgm Hg; the “Change of blood pressure … (after the slash)” value was -10 mgm Hg; the “Duration of action” value was 1 min; the change in vivo at 0.5 mg/kg was 9%. Further, in the assay with cats (2.0 mg/kg i.v.), the “Change of blood pressure … (before the slash)” value is -35 mgm Hg; the “Change of blood pressure … (after the slash)” value was -35 mgm Hg; the “Duration of action” value was 1 min; the change in vivo at 2 mg/kg turned out to be 5%.
For `COc1ccc(-c2nc3cc(C4=NN(C)C(=O)C(C)C4)ccc3[nH]2)cc1` (stereo not shown) [Q, 2-(4-Methoxy-phenyl)-5(6)-(2,4-dimethyl-3-oxo-4,5-dihydro-2H-6-pyridazinyl)-benzimidazole, reference compound], in the assay on cats (0.5 mg/kg i.v.), the “Change of blood pressure … (before the slash)” value was -12 mgm Hg; the “Change of blood pressure … (after the slash)” value is on record as -12 mgm Hg; the “Duration of action” value came to 11 min; the change in vivo at 0.5 mg/kg is -16%. Further, in the assay on cats (2.0 mg/kg i.v.), the “Change of blood pressure … (before the slash)” value is listed as -40 mgm Hg; the “Duration of action” value amounted to 3 min; the change in vivo at 2 mg/kg is -26%.

As a reminder, the EC50 is the midpoint of the concentration-response curve. Low readings indicate a more potent agent, high ones a less potent agent.
